Data as given in a melting point compilation (Tetko et al.; mined from patent text by program, amines drawn as free bases though some values may be those of a salt).

SMILES	melting point
CC(C)(C)NC(=O)[C@@H]1C[C@H](Cl)CN1C(=O)[C@@H](O)[C@H](Cc1ccccc1)N(Cc1ccccc1)Cc1ccccc1	64 to 67 °C
O=C(OCc1ccc(Br)cc1)C1C(=O)OC2CC(=O)N21 (stereo not given)	106 °C
Cc1nc(C)n(-c2cc(C)c3[nH]c(=O)ccc3c2)c1Br	273 °C
COC(=O)c1cc(Nc2ccc(C)cc2)c(C(=O)OC)cc1Nc1ccc(C)cc1	205 to 207 °C
Cc1cc(C)c(-c2cc3cnc(N)nc3nc2N)c(C)c1	276 to 282 °C
COC(=O)c1ccc2cc(CCC=O)oc2c1	57 to 58 °C
CC(=O)NCC1CN(Cc2ccccc2)CCO1 (stereo not given)	110 to 111 °C
COC(=O)COc1ccsc1-c1nsc2ccc(-n3c(=O)cc(C(F)(F)F)n(C)c3=O)cc12	73 to 79 °C
Cc1nc2cc(NC(=O)c3cc4cc(C(F)(F)F)ccc4n3Cc3cccc(F)c3)ccn2c1C	280 to 281 °C
O=C1COCCN1c1ccc(N2C[C@@H](CI)OC2=O)cc1	154 to 157 °C
C#CCNC(=O)N1CC(Oc2ccc(Br)cc2)C1	120 to 122 °C
Clc1ccc(-c2onc3c(CBr)cccc23)cc1	153 to 155 °C
CCC1Cc2cc(OCC(=O)O)c(Cl)cc2C1=O (stereo not given)	132 to 138 °C
CC1CN(c2c(F)cc3c(=O)c(C(=O)O)cn(C4CC4)c3c2Cl)CC1NC(=O)OC(C)(C)C (stereo not given)	210 to 213 °C
Oc1ccc(C2Oc3ccccc3C=C2c2ccc(OC3CCCCO3)cc2)cc1 (stereo not given)	110 °C
CN(C)CCC(=O)Nc1ccc2c(c1)C(=O)c1cc(NC(=O)CCN(C)C)ccc1C2=O	196 °C
CCOP(=O)(OCC)C(c1ccccc1)N(CCCl)C(N)=O (stereo not given)	82 °C
CN(C)c1ccc(-c2cnc(N)c([N+](=O)[O-])c2)cc1	212 °C
O=C1C(Cl)=C(Nc2ccc(S(=O)(=O)Nc3ccccn3)cc2)C(=O)c2ccccc21	273 to 275 °C
Clc1ccc2c(c1)CCc1cccnc1C2=C1CCN(Cc2cccnc2Cl)CC1	56.6 to 60.2 °C
COc1nc(C)c(N2CCCn3c2nc2c(Cl)ccc(C(OC(F)F)C(F)(F)F)c23)c(C)n1 (stereo not given)	169 to 170 °C

SMILES	melting point
CC1(c2ccccc2)CC(=O)N(c2ccncc2)C1=O (stereo not given)	90 to 92 °C
CCCCOc1cc(/C=C(\OCC)C(=O)O)ccc1OCCc1ccc(OS(=O)(=O)CCCC)cc1OC	90 °C
COc1ccc(N2CCCC2=O)cc1OC1CCCC1	130 to 131 °C
COCCCn1c2cc(Cl)ccc2n2c(C)nnc12	136 °C
CC(C)n1nc(-c2cnc(N)nc2-c2ccco2)ccc1=O	215 °C
COc1cc(OC)nc(NC(=O)NS(=O)(=O)c2ccccc2C(CF)OC(C)=O)n1 (stereo not given)	176 to 178 °C
O=S1(=O)N=C2CCCN2c2ccc(O)cc21	> 300 °C
CN(C)CC1Cc2ccccc2N(S(=O)(=O)CCc2ccc(-c3ccccc3)cc2)C1 (stereo not given)	108 to 109 °C
O=C(O)CCc1oc(SCc2ccccn2)nc1-c1ccc(Cl)cc1	125 to 126 °C
CCN1C(=O)c2cccnc2Nc2cccc(C)c21	186 to 188 °C
COc1cccc(C(=O)NCc2cccc3c2CN(C2CCC(=O)NC2=O)C3=O)c1 (stereo not given)	244 to 246 °C
COCCNC(=O)C1=C(C(=O)Nc2cc(OC3CCCC3)c(Cl)cc2F)CCCC1	151 °C
Fc1ccc(-c2nn3cc(C(F)(F)F)ccc3c2-c2ccnc(NC3CCCC3)n2)cc1	155 to 156 °C
CS(=O)(=O)c1ccc(-c2ccccc2CO)cc1	123 to 124 °C
CCCCC(CC)COc1ccc(N2C(C)=CC(=C=C3C(C#N)C(=C(C#N)C#N)OC3(C)C)C=C2C)cc1 (stereo not given)	237 °C
C=Cn1cc(C(=O)O)c(=O)c2cc(F)c(F)c(F)c21	186 to 187 °C
CC#CCOc1ccc(SC(C(=O)O)c2cccc(Cl)c2)cc1 (stereo not given)	64 °C
C#CCN1C(=O)CCc2cc(Cl)cc(Cl)c21	92 to 95 °C
COc1ccc2c(c1OC(C)=O)N=CC1CCCN1C2=O (stereo not given)	144 to 146 °C
N#Cc1ccc(C=NNS(=O)(=O)c2ccccc2)cc1	209 to 213 °C
Cc1cccc(C(=O)NN2NC=CC2C(=O)NCC(O)c2ccc(C(F)(F)F)cc2)n1 (stereo not given)	250 to 251 °C

SMILES	melting point
CCn1c(=O)c2[nH]c(/C=C/c3cc(OC)c4c(c3)OCO4)nc2n(CC)c1=O	> 270 °C
CC(C)(C)[Si](Oc1ccc2[nH]c(=O)oc(=O)c2c1)(c1ccccc1)c1ccccc1	185 °C
COc1cc2c(cc1OCc1ccccc1)C(Sc1ccccc1)(C(N)=CC#N)C2 (stereo not given)	122 to 125 °C
CCOC(=O)CC(=O)c1ccc(CCNC(C)=O)cc1	89 to 92 °C
Nc1cc(C(=O)O)cc(SCc2ccccc2)c1-c1ccccc1	173 to 174 °C
COC(=O)Nc1c(C(=O)O)ccc(Cl)c1Cl	155 to 156 °C
Cc1cc(-c2ccc3nnn(Cc4ccc5ncccc5c4)c3n2)ccc1C(N)=O	235 to 237 °C
N#CCc1cccc2c(C3CCCCC3)nccc12	85.3 to 85.6 °C
O=[N+]([O-])c1cc(-c2ccncc2)ccc1O	210 to 212 °C
CC(C)[C@H](NC(=O)OCc1ccccc1)C(=O)NC(Cc1ccccc1)C(O)C(Cc1ccccc1)NC(=O)OC(C)(C)C (stereo not given in full)	187 to 188 °C
CC1=C(c2ccncc2)CCC(=O)N1	175 to 177 °C
N#CCC1(c2ccc(Cl)cc2)CCC1	63 to 65 °C
CC(C)Oc1ccc(/C=C(\NC(=O)c2ccc(OCCCC3CC3)cc2)C(=O)NCCO)cc1	64 to 66 °C
CCOC(=O)n1c(=O)n(CCN2CCN(c3ccccc3OC)CC2)c(=O)c2sccc21	121 to 122 °C
CN1CCC(c2ccccc2)(N2CCCC2)C(O)C1 (stereo not given)	149 to 151 °C
CCOC(=O)c1cnc2nn(C)cc2c1NC	178 to 180 °C
CC(=O)SC1NC(=O)C1Cc1ccccc1 (stereo not given)	42 to 43 °C
COc1ccc(N2CCN(Cc3ccc([N+](=O)[O-])cc3)CC2)cc1	130 to 132 °C
COc1ccc(-c2cc(CCC(=O)O)sc2-c2ccc(OC)cc2)cc1	96 °C
CCN(CC)C(=O)Cc1cc(-c2ccccc2)nc2ccccc12	86 °C

Other lines, results leading:

melting point	SMILES
> 260 °C	O=C1CCC(N2Cc3c(CNC(=O)c4ccc(Cl)c(Cl)c4)cccc3C2=O)C(=O)N1 (stereo not given)
285 °C	O=c1c2c(nc3ccc(-c4nnn[nH]4)cn13)CSC2
95.5 to 96 °C	O=c1n(CCC#Cc2ccccn2)nc2ccccn12
309 to 317 °C	CCc1cc(O)c2c(ccc3nc[nH]c32)n1
122 to 124 °C	COc1ccc(C(O)CN2CCN(c3cccccc3=O)CC2)cc1OC (stereo not given)
92 to 93 °C	C=CCOc1ccc(CCNC(=O)C(F)(F)F)cc1S(=O)(=O)N=CN(C)C
230 to 232 °C	CN(c1cccc2cc(C3=NCC(C(N)=O)S3)[nH]c12)S(=O)(=O)c1cccs1 (stereo not given)
61 to 63 °C	COC1CN(C)S(=O)(=O)c2sccc21 (stereo not given)
60 to 63 °C	O=C(CN1CCCC1)Nc1ccc(Br)cc1
75 to 78 °C	COc1cc(O)c(C=O)cc1C(C)(C)C
174 °C	CCOC(=O)c1c(Nc2ccc(F)cc2[N+](=O)[O-])nn(C)c1C
302 to 303 °C	Cc1c(NC(=O)c2ccc(C(C)(C)C)cc2)nc2ccc(-n3ccnc3)nn12
59 to 60 °C	CCOC(=O)C1=C(C)NC(C(OCC)OCC)=C(C(=O)OCC)C1c1ccco1 (stereo not given)
197 °C	COC(=O)C1=C(C)NN=C(C(=O)N(C)Cc2ccccc2)C1c1ccccc1C(F)(F)F (stereo not given)
176 °C	O=C(Oc1ccc(C(=C2CCCCC2)c2ccc(OC(=O)c3ccccc3)c(OC(=O)c3ccccc3)c2)cc1OC(=O)c1ccccc1)c1ccccc1
157 to 158 °C	c1cc(-c2nccs2)cc(-n2cnc3cc(-c4ccon4)ccc32)c1
196 °C	O=S(CCCCCOc1ccc(C2=C(c3ccccc3)CCCc3cc(O)ccc32)cc1)Cc1ccccc1 (stereo not given)
183 to 185 °C	CC(C)Sc1c(C(N)=O)sc2ccccc12
82 to 88 °C	CC(=Cc1ccc(C(C)(C)C)cc1)C[N+]1([O-])CCCCC1

melting point	SMILES
117 to 120 °C	N[C@@H](CO)C(=O)NC(=O)N(CCCl)N=O
120 °C	CCCNCCCOc1ccc(-c2ccc(C(=O)OCC)cc2)cc1-c1ccc2c(c1)C(C)(C)CCC2(C)C
201 to 202 °C	CN(C)c1nc(N)c(C#N)nc1C#N
189 °C	Cc1cc(Nc2ccnc(Nc3ccc(S(=O)(=O)N(CC4CCCO4)C4CCN(C)CC4)cc3)n2)ccc1F (stereo not given)
81 to 84 °C	O=C1OC(=Nc2ccc(F)cc2F)C2=C1CCCC2
214 to 215 °C	Nc1nc2c(c(Nc3ccc(Br)cc3)n1)-c1ccccc1C2
157 to 159 °C	CC1CC(=O)N(c2cc(C(C)(C)C)c(O)c(C(C)(C)C)c2)C1 (stereo not given)
129 to 130 °C	O=C(O)CCCCCNC(=O)S[C@@H]1CC(=O)N(Cc2ccc(Oc3ccc(F)cc3)nc2)C1
112 to 120 °C	O[C@@H](CNCCOc1ccc2oc(-c3ccon3)cc2c1)c1cccc(Cl)c1
128 to 130 °C	CN(N)c1cnn(-c2ccccc2)c(=O)c1Cl
115 °C	CN(C)S(=O)(=O)c1ccc2c(c1)CC(Br)C2=O (stereo not given)
76 to 77 °C	CC(C)(C)c1cc(OC[Si](C)(C)Cc2ccccc2)cc(C(C)(C)C)c1O
201 to 202 °C	CCOC(=O)c1sc(Oc2ccc(NS(=O)(=O)c3ccc(C)cc3)cc2)c2c1CCc1cnn(C)c1-2
82 to 84 °C	CCOC(=O)Nn1c(C)ccc1C(=O)c1ccccc1Cl
200 to 205 °C	Cn1cc(CS(C)(=O)=O)c(=O)c2cc(F)ccc21
106 °C	CCn1cc(-c2cccc(C(F)(F)F)c2)c(=O)n1-c1cccc(Br)c1
99 to 100 °C	CC1C(=O)Oc2cc(N3CCOCC3)c(Br)cc21 (stereo not given)
113 to 115 °C	COc1ccc2c(c1)Oc1ccc(Cl)cc1NC2
129 to 131 °C	CCCN(Cc1ccc(-c2ccccc2-c2nnnn2C(c2ccccc2)(c2ccccc2)c2ccccc2)cc1)c1ncccc1C(=O)OCC
